{"source": "patent US20140213632A1", "about": "“HCV Combination Therapy” (Stella Aps, priority 2011, published 2014)", "key": {"Huh-luc/neo-ET cells": {"test_system": "Huh-luc/neo-ET cells", "procedure": "Eight dilutions of non-transfected antimiR oligonucleotide (bracketing the calculated EC50) were evaluated in triplicate on duplicate sets of three plates with five dilutions of each of the control compounds (bracketing the calculated EC50). One set of plates was used for the determination of cellular toxicity and the other set of plates was used for the determination of anti-viral efficacy. The efficacy and toxicity results was quantified with firefly luciferase activity and XTT dye reduction, respectively, and the results of the assay is imported into the Prichard and Shipman MacSynergy II software program. […] The expected level of activity at each of the concentration data points was compared to the experimentally determined antiviral activity in the assay. The expected activity was subtracted from the realized activity, yielding a negative, zero or positive value. […]\nThe cells were treated with trypsin and enumerated by staining with trypan blue and seeded into 96-well tissue culture plates at a cell culture density 5.0×10^3 cells per well in a volume of 85 f.IL per well and incubated at […] in an environment of 5% CO2 for 24 hours. […] Following incubation, the plates were assessed for anti-HCV activity by measurement of luciferase reporter activity and cellular cytotoxicity by XTT staining."}, "[1]": {"test_system": "HCV genotype Ib replicon in Huh-luc/neo-ET cells", "format": "cell-based, HCV genotype 1b", "conditions": "for interaction: SPC3649 with 2-methyl cytidine", "protocol": "The anti-viral efficacy and cellular toxicity of non-transfected antimiR oligonucleotide in combination with approved and experimental anti-HCV therapeutics (e.g. BMS-790052) (or other NS5A inhibitors), was determined in the reporter cell line Huh-luc/neo-ET. This cell line harbors the persistently replicating I389luc-ubi-neo/NS3-37ET replicon containing the firefly luciferase gene-ubiquitin-neomycin phosphotransferase fusion protein and EMCV IRES driven NS3-5B HCV coding sequences containing the ET tissue culture adaptive mutations (E1202G, T1208I, and K1846T). Eight dilutions of non-transfected antimiR oligonucleotide (bracketing the calculated EC50) were evaluated in triplicate on duplicate sets of three plates with five dilutions of each of the control compounds (bracketing the calculated EC50). One set of plates was used for the determination of cellular toxicity and the other set of plates was used for the determination of anti-viral efficacy. The efficacy and toxicity results was quantified with firefly luciferase activity and XTT dye reduction, respectively, and the results of the assay is imported into the Prichard and Shipman MacSynergy II software program. The MacSynergy II analysis includes calculation of the dose response of the two (or more) compounds when used alone followed by calculation of the expected additive level of antiviral inhibition or toxicity when the compounds are used together based on the individual dose response curves. The expected level of activity at each of the concentration data points was compared to the experimentally determined antiviral activity in the assay. The expected activity was subtracted from the realized activity, yielding a negative, zero or positive value. […]\nThe combination antiviral assays were performed using the reporter cell line Huh-luc/neo-ET, which contains a bicistronic HCV genotype Ib replicon. Combination data were analyzed using MacSynergy II software at the 95%, confidence interval. […]"}, "[2]": {"test_system": "HCV genotype 1b replicon NS3 A156T", "format": "cell-based", "conditions": "EC50 mutant / EC50 wild-type; mean of two experiments (individual values); 72 hours", "procedure": "(§1) The objective of this study was to evaluate the in vitro antiviral activity of miravirsen (SPC3649) against wild-type HCV genotype Ib replicon and NS3, NS5A and NS5B drug-resistant HCV genotype 1 b replicons in transient transfection assays utilizing Huh 7 cells. Method: The in vitro antiviral of miravirsen was evaluated against wild-type HCV genotype 1 b replicon and HCV genotype 1 b replicons constructed to contain key amino acid substitutions in NS3 protease (A156T, R155K), NS5B polymerase (S282T, M423I) and NS5A protein (Y93H) in transient transfection assays utilizing Huh 7 cells. […] Huh 7 cells were transfected with either the wild-type or the mutant RNA constructs by electroporation. Luciferase activity was measured 72 hours after compound treatment and EC50 values determined from dose-response curves. Fold resistance was expressed as the ratio of the EC50 for mutant HCV replicon to the EC50 for wild-type HCV replicon.\n(§2) The in vitro antiviral of miravirsen was evaluated against wild-type HCV genotype Ib replicon and HCV replicons constructed to contain key amino acid substitutions in NS3 protease (A156T, R155K), NS5B polymerase (S282T, M423I) and NS5A protein (Y93H) in transient transfection assays. […] Huh 7 cells were transfected with either the wild type or the mutant RNA constructs by electroporation. Luciferase activity was measured 72 hours after compound treatment and EC50 values determined from dose-response curves. Fold resistance was expressed as the ratio of the EC50 for mutant HCV replicon to the EC50 for wild-type HCV replicon. Results are expressed as the mean of two individual experiments. In an initial set of experiments, the standard protocol was modified by adding compounds 24 hours after electroporation. […] In a third experiment cells were pretreated with miravirsen for 24 hours before electroporation with wild-type RNA constructs to determine if preincubation could result in increased miravirsen antiviral activity."}, "[3]": {"test_system": "HCV genotype 1b replicon NS3 R155K", "format": "cell-based", "conditions": "EC50 mutant / EC50 wild-type; mean of two experiments (individual values); 72 hours", "procedure": "as §1, §2"}, "[4]": {"test_system": "HCV genotype 1b replicon NS5A Y93H", "format": "cell-based", "conditions": "EC50 mutant / EC50 wild-type; mean of two experiments (individual values); 72 hours", "procedure": "as §1, §2"}, "[5]": {"test_system": "HCV genotype 1b replicon NS5B S282T", "format": "cell-based", "conditions": "EC50 mutant / EC50 wild-type; mean of two experiments (individual values); 72 hours", "procedure": "as §1, §2"}, "[6]": {"test_system": "HCV genotype 1b replicon NS5B M423I", "format": "cell-based", "conditions": "EC50 mutant / EC50 wild-type; mean of two experiments (individual values); 72 hours", "procedure": "as §1, §2"}}, "note": "Where two headings read alike, the source gives them in different places."}
{"molecule": "5′-Ts·^oc^·sAs·^otsa^·s^mCs·^oTs·^oa^·stsAs·^otsGs·^oa^·s^mCs·^oA·^o-3′ [SPC4729]", "values": [{"measurement": "Cytotoxicity, Synergy vol", "setting": "Huh-luc/neo-ET cells", "value": "0.00/−44.3 μM^2%"}, {"measurement": "Cytotoxicity, Antag Vol", "setting": "Huh-luc/neo-ET cells; Ribavirin plus the named compound, 95% confidence level", "value": "0.00/−44.3 μM^2%"}, {"measurement": "overall interaction (antiviral)", "setting": "[1]; ribavirin plus the named compound", "value": "antagonistic"}]}
{"molecule": "5′-^mCs^ocsAs^otstsGs^oTs^ocsas^mCs^oas^mCs^ots^mCs^omCo-3′ (CCATTGTCACACTCC; all phosphorothioate, sugars by position and methylation of C not given here; further chemistry not fully specified) [miravirsen]", "values": [{"measurement": "Fold Resistance NS3 A156T", "setting": "[2]", "value": "1.0 (1.4, 0.5) fold"}, {"measurement": "Fold Resistance NS3 R155K", "setting": "[3]", "value": "1.2 (1.9, 0.4) fold"}, {"measurement": "Fold Resistance NS5A Y93H", "setting": "[4]", "value": "0.9 (0.8, 0.9) fold"}, {"measurement": "Fold Resistance NS5B S282T", "setting": "[5]", "value": "1.9 (2.6, 1.1) fold"}, {"measurement": "Fold Resistance NS5B M423I", "setting": "[6]", "value": "1.7 (2.3, 1.0) fold"}]}
{"molecule": "C[C@@]1(O)[C@H](O)[C@@H](CO)O[C@H]1n1ccc(N)nc1=O", "note": "[2′-C-Methylcytidine]", "values": [{"measurement": "interaction", "setting": "[1]; third replicate", "value": "slightly antagonistic interaction"}, {"measurement": "interaction", "setting": "[1]; two of the assay replicates", "value": "positive interactions"}]}
{"molecule": "CCC[C@H](NC(=O)[C@@H]1[C@H]2CCC[C@H]2CN1C(=O)[C@@H](NC(=O)[C@@H](NC(=O)c1cnccn1)C1CCCCC1)C(C)(C)C)C(=O)C(=O)NC1CC1", "note": "[Telaprevir, (1S,3aR,6aS)-2-[(2S)-2-[[(2S)-2-Cyclohexyl-2-(pyrazine-2-carbonylamino)acetyl]amino]-3,3-dimethylbutanoyl]-N-[(3S)-1-(cyclopropylamino)-1,2-dioxohexan-3-yl]-3,3a,4,5,6,6a-hexahydro-1H-cyclopenta[c]pyrrole-1-carboxamide]", "values": [{"measurement": "Fold Resistance NS3 R155K", "setting": "[3]", "value": "4.6 (5.0, 4.2) fold"}]}
{"molecule": "CC(C)(C)C#Cc1cc(N(C(=O)[C@H]2CC[C@H](C)CC2)[C@H]2CC[C@H](O)CC2)c(C(=O)O)s1", "note": "[VX-222]", "values": [{"measurement": "Fold Resistance NS5B M423I", "setting": "[6]", "value": "4.4 (3.6, 5.2) fold"}]}
